Results from ChEMBL document CHEMBL2413072, “Synthesis and in vitro anticancer studies of novel C-2 arylidene congeners of lantadenes” (2013).

How the values were obtained:
Type in all cases: functional
[1] = test system: OVCAR-8; experiment: Growth inhibition of human OVCAR8 cells assessed as cell growth at 10^-7 M by sulforhodamine B assay; details: read-out: Activity
[2] = test system: MDA-MB-468; experiment: Growth inhibition of human MDA-MB-468 cells assessed as cell growth at 10^-8 M by sulforhodamine B assay; details: read-out: Activity
[3] = test system: OVCAR-5; experiment: Growth inhibition of human OVCAR5 cells assessed as cell growth at 10^-7 M by sulforhodamine B assay; details: read-out: Activity
[4] = test system: SF-268; experiment: Growth inhibition of human SF268 cells assessed as cell growth at 10^-4 M by sulforhodamine B assay; details: read-out: Activity
[5] = test system: BT-549; experiment: Growth inhibition of human BT549 cells assessed as cell growth at 10^-7 M by sulforhodamine B assay; details: read-out: Activity
[6] = test system: SK-OV-3; experiment: Growth inhibition of human SKOV3 cells assessed as cell growth at 10^-6 M by sulforhodamine B assay; details: read-out: Activity
[7] = test system: BT-549; experiment: Growth inhibition of human BT549 cells assessed as cell growth at 10^-6 M by sulforhodamine B assay; details: read-out: Activity
[8] = test system: UO-31; experiment: Growth inhibition of human UO31 cells assessed as cell growth at 10^-8 M by sulforhodamine B assay; details: read-out: Activity
[9] = test system: SK-MEL-28; experiment: Growth inhibition of human SK-MEL-28 cells by sulforhodamine B assay
[10] = test system: HOP-62; experiment: Growth inhibition of human HOP62 cells by sulforhodamine B assay
[11] = test system: SW-620; experiment: Growth inhibition of human SW620 cells assessed as cell growth at 10^-8 M by sulforhodamine B assay; details: read-out: Activity
[12] = test system: UACC-257; experiment: Growth inhibition of human UACC257 cells assessed as cell growth at 10^-8 M by sulforhodamine B assay; details: read-out: Activity
[13] = test system: ACHN; experiment: Growth inhibition of human ACHN cells assessed as cell growth at 10^-8 M by sulforhodamine B assay; details: read-out: Activity
[14] = test system: MOLT-4; experiment: Growth inhibition of human MOLT4 cells assessed as cell growth at 10^-7 M by sulforhodamine B assay; details: read-out: Activity
[15] = test system: UACC-62; experiment: Growth inhibition of human UACC62 cells assessed as cell growth at 10^-7 M by sulforhodamine B assay; details: read-out: Activity
[16] = Growth inhibition of human HCC2998 cells assessed as cell growth at 10^-6 M by sulforhodamine B assay; details: HCC 2998, read-out: Activity
[17] = test system: HT-29; experiment: Growth inhibition of human HT-29 cells by sulforhodamine B assay
[18] = test system: OVCAR-5; experiment: Growth inhibition of human OVCAR5 cells by sulforhodamine B assay
[19] = test system: SK-OV-3; experiment: Growth inhibition of human SKOV3 cells assessed as cell growth at 10^-8 M by sulforhodamine B assay; details: read-out: Activity
[20] = test system: SK-OV-3; experiment: Growth inhibition of human SKOV3 cells assessed as cell growth at 10^-7 M by sulforhodamine B assay; details: read-out: Activity
[21] = test system: Malme-3M; experiment: Growth inhibition of human MALME-3M cells by sulforhodamine B assay
[22] = test system: HOP-62; experiment: Growth inhibition of human HOP62 cells assessed as cell growth at 10^-4 M by sulforhodamine B assay; details: read-out: Activity
[23] = test system: TK-10; experiment: Growth inhibition of human TK10 cells assessed as cell growth at 10^-4 M by sulforhodamine B assay; details: read-out: Activity
[24] = test system: MDA-MB-231; experiment: Growth inhibition of human MDA-MB-231 cells assessed as cell growth at 10^-4 M by sulforhodamine B assay; details: read-out: Activity
[25] = test system: MDA-MB-468; experiment: Growth inhibition of human MDA-MB-468 cells by sulforhodamine B assay
[26] = test system: KM12; experiment: Growth inhibition of human KM12 cells by sulforhodamine B assay
[27] = test system: K562; experiment: Growth inhibition of human K562 cells by sulforhodamine B assay
[28] = test system: M14; experiment: Growth inhibition of human M14 cells by sulforhodamine B assay
[29] = test system: PC-3; experiment: Growth inhibition of human PC3 cells by sulforhodamine B assay
[30] = test system: LOX IMVI; experiment: Growth inhibition of human LOXIMVI cells assessed as cell growth at 10^-6 M by sulforhodamine B assay; details: read-out: Activity
[31] = test system: M14; experiment: Growth inhibition of human M14 cells assessed as cell growth at 10^-6 M by sulforhodamine B assay; details: read-out: Activity
[32] = test system: K562; experiment: Growth inhibition of human K562 cells assessed as cell growth at 10^-7 M by sulforhodamine B assay; details: read-out: Activity
[33] = test system: MOLT-4; experiment: Growth inhibition of human MOLT4 cells assessed as cell growth at 10^-6 M by sulforhodamine B assay; details: read-out: Activity
[34] = test system: NCI-H23; experiment: Growth inhibition of human NCI-H23 cells assessed as cell growth at 10^-7 M by sulforhodamine B assay; details: read-out: Activity
[35] = test system: HT-29; experiment: Growth inhibition of human HT-29 cells assessed as cell growth at 10^-4 M by sulforhodamine B assay; details: read-out: Activity
[36] = test system: HL-60(TB); experiment: Growth inhibition of human HL-60(TB) cells assessed as cell growth at 10^-8 M by sulforhodamine B assay; details: read-out: Activity
[37] = test system: SNB-75; experiment: Growth inhibition of human SNB75 cells assessed as cell growth at 10^-6 M by sulforhodamine B assay; details: read-out: Activity
[38] = test system: SK-MEL-5; experiment: Growth inhibition of human SK-MEL-5 cells assessed as cell growth at 10^-6 M by sulforhodamine B assay; details: read-out: Activity
[39] = test system: 786-0; experiment: Growth inhibition of human 786-0 cells assessed as cell growth at 10^-7 M by sulforhodamine B assay; details: read-out: Activity
[40] = read-out: LC50 (the source's name)
[41] = read-out: pLC50 (the source's name) (converted)

Compound: CC1(C)C[C@@H](O)[C@]2(C(=O)O)CC[C@]3(C)C(=CC[C@@H]4[C@@]5(C)C/C(=C\C=C\c6ccccc6)C(=O)C(C)(C)[C@@H]5CC[C@]43C)[C@@H]2C1
- growth at 0.1 µM [1]: 97%
- growth at 0.01 µM [2]: 95%
- growth at 0.1 µM [3]: 92%
- growth at 100 µM [4]: -83%
- growth at 0.1 µM [5]: 103%
- growth at 1 µM [6]: 96%
- growth at 1 µM [7]: 100%
- growth at 0.01 µM [8]: 88%
- GI50 ([9]; read-out: GI50): 4.37 µM
- CC50 [9, 40]: 51.8 µM
- TGI ([9]; read-out: TGI): 17 µM
- GI50 ([9]; read-out: pGI50 (converted)): 4.37 µM
- CC50 [9, 41]: 51.3 µM
- TGI ([9]; read-out: pTGI (converted)): 17 µM
- GI50 ([10]; read-out: GI50): 4.72 µM
- LC50 (concentration killing 50% of cells) ([10]; read-out: LC50): 83.5 µM
- TGI ([10]; read-out: TGI): 21.2 µM
- GI50 ([10]; read-out: pGI50 (converted)): 4.68 µM
- LC50 (concentration killing 50% of cells) ([10]; read-out: pLC50 (converted)): 83.2 µM
- TGI ([10]; read-out: pTGI (converted)): 21.4 µM
- growth at 0.01 µM [11]: 99%
- growth at 0.01 µM [12]: 93%
- growth at 0.01 µM [13]: 97%
- growth at 0.1 µM [14]: 97%
- growth at 0.1 µM [15]: 93%
- growth at 1 µM [16]: 108%
- GI50 ([17]; read-out: GI50): 2.68 µM
- LC50 (50% cell kill) ([17]; read-out: LC50): 32.9 µM
- TGI ([17]; read-out: TGI): 7.37 µM
- GI50 ([17]; read-out: pGI50 (converted)): 2.69 µM
- LC50 (50% cell kill) ([17]; read-out: pLC50 (converted)): 33.1 µM
- TGI ([17]; read-out: pTGI (converted)): 7.41 µM
- GI50 ([18]; read-out: GI50): 2.97 µM
- CC50 [18, 40]: 33.6 µM
- TGI ([18]; read-out: TGI): 10.5 µM
- GI50 ([18]; read-out: pGI50 (converted)): 2.95 µM
- CC50 [18, 41]: 33.9 µM
- TGI ([18]; read-out: pTGI (converted)): 10.5 µM
- growth at 0.01 µM [19]: 96%
- growth at 0.1 µM [20]: 102%
- GI50 ([21]; read-out: GI50): 2.57 µM
- CC50 [21, 40]: 59.2 µM
- TGI ([21]; read-out: TGI): 7.23 µM
- GI50 ([21]; read-out: pGI50 (converted)): 2.57 µM
- CC50 [21, 41]: 58.9 µM
- TGI ([21]; read-out: pTGI (converted)): 7.24 µM
- growth at 100 µM [22]: -57%
- growth at 100 µM [23]: -86%
- growth at 100 µM [24]: -93%
- GI50 ([25]; read-out: GI50): 3.3 µM
- CC50 [25, 40]: > 100 µM
- TGI ([25]; read-out: TGI): 12.7 µM
- GI50 ([25]; read-out: pGI50 (converted)): 3.31 µM
- CC50 [25, 41]: 37.2 µM
- TGI ([25]; read-out: pTGI (converted)): 12.6 µM
- GI50 ([26]; read-out: GI50): 3.01 µM
- LC50 (50% net cell kill) ([26]; read-out: LC50): 47.2 µM
- TGI ([26]; read-out: TGI): 11.2 µM
- GI50 ([26]; read-out: pGI50 (converted)): 3.02 µM
- LC50 (50% net cell kill) ([26]; read-out: pLC50 (converted)): 46.8 µM
- TGI ([26]; read-out: pTGI (converted)): 11.2 µM
- GI50 ([27]; read-out: GI50): 3.74 µM
- LC50 ([27]; read-out: LC50): > 100 µM
- TGI ([27]; read-out: TGI): > 100 µM
- GI50 ([27]; read-out: pGI50 (converted)): 3.72 µM
- LC50 ([27]; read-out: pLC50 (converted)): > 100 µM
- TGI ([27]; read-out: pTGI (converted)): > 100 µM
- GI50 ([28]; read-out: GI50): 3.74 µM
- CC50 [28, 40]: 52 µM
- TGI ([28]; read-out: TGI): 15.8 µM
- GI50 ([28]; read-out: pGI50 (converted)): 3.72 µM
- CC50 [28, 41]: 52.5 µM
- TGI ([28]; read-out: pTGI (converted)): 15.8 µM
- GI50 ([29]; read-out: GI50): 3.03 µM
- CC50 [29, 40]: 63.7 µM
- TGI ([29]; read-out: TGI): 16.3 µM
- GI50 ([29]; read-out: pGI50 (converted)): 3.02 µM
- CC50 [29, 41]: 63.1 µM
- TGI ([29]; read-out: pTGI (converted)): 16.2 µM
- growth at 1 µM [30]: 101%
- growth at 1 µM [31]: 91%
- growth at 0.1 µM [32]: 102%
- growth at 1 µM [33]: 89%
- growth at 0.1 µM [34]: 95%
- growth at 100 µM [35]: -83%
- growth at 0.01 µM [36]: 101%
- growth at 1 µM [37]: 79%
- growth at 1 µM [38]: 95%
- growth at 0.1 µM [39]: 100%
